These results are taken from ChEMBL document CHEMBL3091444, “5-Chlorothiophene-2-carboxylic acid [(S)-2-[2-methyl-3-(2-oxopyrrolidin-1-yl)benzenesulfonylamino]-3-(4-methylpiperazin-1-yl)-3-oxopropyl]amide (SAR107375), a selective and potent orally active dual thrombin and factor Xa inhibitor” (J Med Chem, 2013).

The nature of data set [1]: Metabolic stability in Sprague-Dawley rat liver microsomes at 5 uM after 20 mins. The format is ADME. The settings on record: read-out: Stability. On the technique in general: Microsomes from liver hold many membrane-bound enzymes, among them those of drug oxidation.
Data set [2] is described as follows: Metabolic stability in Swiss CD1 mouse liver microsomes at 5 uM after 20 mins. The format is ADME, Microsome. The note with it: read-out: Stability.
Data set [3] in a line: Metabolic stability in human liver microsomes at 5 uM after 20 mins. The format is ADME. The settings on record: read-out: Stability.
A short description of data set [4]: Oral bioavailability in dog at 10 mg/kg. The format is ADME, organism-based, Canis lupus familiaris. The note with it: in vivo.
Data set [5] can be described thus: Half life in dog at 10 mg/kg, po. The format is ADME, organism-based, Canis lupus familiaris. Details: dose 10 mg/kg, route oral. The settings on record: in vivo.
A short description of data set [6]: Cmax in dog at 10 mg/kg, po. The format is ADME, organism-based, Canis lupus familiaris. Set-up: dose 10 mg/kg, route oral. The note with it: in vivo.
Data set [7] is described as follows: AUC in dog at 10 mg/kg, po. The format is ADME, organism-based, Canis lupus familiaris. Set-up: dose 10 mg/kg, route oral. The settings on record: plasma.
The nature of data set [8]: Tmax in dog at 10 mg/kg, po. The format is ADME, organism-based, Canis lupus familiaris. Details: dose 10 mg/kg, route oral. The settings on record: in vivo.
Data set [9] in a line: Half life in dog at 3 mg/kg, iv. The format is ADME, organism-based, Canis lupus familiaris. Details: dose 3 mg/kg, route intravenous. The settings on record: in vivo.
Data set [10] can be described thus: Cmax in dog at 3 mg/kg, iv. The format is ADME, organism-based, Canis lupus familiaris. Details: dose 3 mg/kg, route intravenous. The settings on record: in vivo.
Data set [11] in a line: Volume of distribution at steady state in dog at 3 mg/kg, iv. The format is ADME, organism-based, Canis lupus familiaris. Details: dose 3 mg/kg, route intravenous. The note with it: in vivo, read-out: Vdss.
A short description of data set [12]: Clearance in dog at 3 mg/kg, iv. The settings on record: in vivo. Set-up: dose 3 mg/kg, route intravenous. The format is ADME, organism-based, Canis lupus familiaris.
Data set [13] in a line: AUC in dog at 3 mg/kg, iv. The format is ADME, organism-based, Canis lupus familiaris. Details: dose 3 mg/kg, route intravenous. The settings on record: plasma.
Data set [14] in a line: Oral bioavailability in Sprague-Dawley rat at 10 mg/kg. The format is ADME, organism-based. The note with it: in vivo.
A short description of data set [15]: Half life in Sprague-Dawley rat at 10 mg/kg, po. Details: dose 10 mg/kg, route oral. The format is ADME, organism-based. The settings on record: in vivo.
Data set [16] in a line: Cmax in Sprague-Dawley rat at 10 mg/kg, po. The format is ADME, organism-based. Details: dose 10 mg/kg, route oral. The settings on record: in vivo.
The nature of data set [17]: Tmax in Sprague-Dawley rat at 10 mg/kg, po. The format is ADME, organism-based. Details: dose 10 mg/kg, route oral. The note with it: in vivo.
Data set [18] can be described thus: AUC in Sprague-Dawley rat at 10 mg/kg, po. The format is ADME, organism-based. Details: dose 10 mg/kg, route oral. The note with it: plasma.
Data set [19] is described as follows: Half life in Sprague-Dawley rat at 3 mg/kg, iv. The format is ADME, organism-based. Set-up: dose 3 mg/kg, route intravenous. The note with it: in vivo.
Data set [20] can be described thus: Volume of distribution at steady state in Sprague-Dawley rat at 3 mg/kg, iv. The settings on record: in vivo, read-out: Vdss. Set-up: dose 3 mg/kg, route intravenous. The format is ADME, organism-based.
The nature of data set [21]: Cmax in Sprague-Dawley rat at 3 mg/kg, iv. The settings on record: in vivo. Set-up: dose 3 mg/kg, route intravenous. The format is ADME, organism-based.
A short description of data set [22]: Clearance in Sprague-Dawley rat at 3 mg/kg, iv. Set-up: dose 3 mg/kg, route intravenous. The format is ADME, organism-based. The note with it: in vivo.
Data set [23] in a line: AUC in Sprague-Dawley rat at 3 mg/kg, iv. Details: dose 3 mg/kg, route intravenous. The settings on record: plasma. The format is ADME, organism-based.
Data set [24] is described as follows: Permeability of the compound across human Caco2 cells. The format is ADME, cell-based. The settings on record: Caco-2, read-out: permeability.
The subject of data set [25] is Liver microsome. As to the kind of experiment: Drug metabolism in human liver microsomes assessed as oxidation. The format is ADME.

Regarding `O=C(NC[C@H](NS(=O)(=O)c1cccc(N2CCOCC2=O)c1Cl)C(=O)N1CCC(O)CC1)c1ccc(Cl)s1`, the remaining at 20 min, 5 µM in data set [1] is 58%; in data set [2], 18%; in data set [3], 38%.
With `Cc1c(N2CCCC2=O)cccc1S(=O)(=O)N[C@@H](CNC(=O)c1ccc(Cl)s1)C(=O)N1CCN(C)CC1.Cl`, the figures for the bioavailability in data set [4] and in data set [14] were 47% and 21%, respectively. The half-life (in general, the time needed for the level to fall by half in the phase considered) in data set [5] was 2.4 h; in data set [9] it was 1.1 h; in data set [15], 6.2 h; in data set [19] it was 6.6 h. Moreover, the Cmax (usually the maximum level reached in the sampled fluid or tissue) came out at 1530 ng/mL in data set [6], 3500 ng/mL in data set [10], 154 ng/mL in data set [16] and 1300 ng/mL in [21]. The AUC (in general, the area under the concentration-time curve, a measure of exposure) in data set [7] is 2600 ng·h/mL; in data set [13], 1800 ng·h/mL; in data set [18], 360 ng·h/mL; in data set [23] it was 510 ng·h/mL. The Tmax (as a rule, the time at which the peak concentration occurs) in [8] stood at 0.5 h; in [17], 0.25 h. Further, the Vd in data set [11] came to 1.5 L/kg; in [20], 4.6 L/kg. Further, the clearance (commonly the volume of plasma or blood freed of the substance per unit of time) in [12] turned out to be 28.3 mL/min/kg; in data set [22], 96.7 mL/min/kg. Also, the remaining at 20 min, 5 µM was 25% in [1], 25% in data set [2] and 34% in data set [3].
Turning to `Cc1c(N2CCOCC2=O)cccc1S(=O)(=O)N[C@@H](CNC(=O)c1ccc(Cl)s1)C(=O)N1CCOC[C@@H]1C`, the remaining at 20 min, 5 µM in data set [1] was 58%; in data set [2] it was 91%; in [3] it was 74%.
For `Cc1c(N2CCOCC2=O)cccc1S(=O)(=O)N[C@@H](CNC(=O)c1ccc(Cl)s1)C(=O)N1CCN(C)CC1`, in that order: 0%, 26% and 52%.
With `CN1CCN(C(=O)[C@H](CNC(=O)c2ccc(Cl)s2)NS(=O)(=O)c2cccc(N3CCOCC3=O)c2Cl)CC1`, the remaining at 20 min, 5 µM in data set [1] was 63%; in data set [2] it was 69%; in [3], 72%.
`Cc1c(-c2ccccn2)cccc1S(=O)(=O)N[C@@H](CCCc1ccc(N)cn1)C(=O)N1CCC(=C(F)F)CC1`: the Papp in [24] was determined as 9.6 ×10⁻⁶ cm/s.
Regarding `CCc1c(N2CCOCC2=O)cccc1S(=O)(=O)N[C@@H](CNC(=O)c1ccc(Cl)s1)C(=O)N1CCC(O)CC1`, the remaining at 20 min, 5 µM in [1] was 51%; in data set [2] it was 68%; in [3], 80%.
In the same order, the values of `CCc1c(N2CCOCC2=O)cccc1S(=O)(=O)N[C@@H](CNC(=O)c1ccc(Cl)s1)C(=O)N1CCOC[C@@H]1C` are 99%, 99% and 99%.
Take `CCc1c(-c2ccccn2)cccc1S(=O)(=O)N[C@@H](CNC(=O)c1ccc(Cl)s1)C(=O)N1CCOC[C@@H]1C`: the Drug metabolism result in [25] is recorded as “Active”. For the same compound, the remaining at 20 min, 5 µM was determined as 65% in data set [1], 99% in [2] and 99% in data set [3].
Take `CN1CCN(C(=O)[C@H](CNC(=O)c2ccc(Cl)s2)NS(=O)(=O)c2cccc(N3CCCC3=O)c2Cl)CC1`: the remaining at 20 min, 5 µM was found to be 54% in data set [1], 45% in data set [2] and 59% in data set [3].
In the same order, the values of `CCc1c(N2CCOCC2=O)cccc1S(=O)(=O)N[C@@H](CNC(=O)c1ccc(Cl)s1)C(=O)N1CCC(OC)CC1` are 99%, 98% and 99%.
